Tests used:
[1] = tested on: NZB/W F1 female mice; test: Renal histopathological evaluation in SLE model mouse; assay type: in vivo
Method: (§1) 80 NZB/W F1 female mice (four weeks old) were purchased from Jackson Laboratory and maintained in an SPF breeding room with five mice per cage. Their weight and urine protein were measured at 24 weeks after birth (right before administration), and then all the animals except those having too much urine protein were divided into groups as shown in a table 2 below such that the urine protein and weight might be evenly distributed among the groups.
(§2) Then, the mice were administered as described in the table 2 once a day for about 19 weeks from 24 weeks after birth to 42 weeks after birth.
To identify an effect of the inventive pharmaceutical composition on kidney in the SLE disease model, a histopathological evaluation was performed.
First of all, a half of a left kidney of a mouse collected during the autopsy was fixed with 10% neutral buffered formalin and prepared as a paraffin block. Then, a histopathological evaluation was performed by means of hematoxylin and eosin staining (H&E, BBC Biochemical, Mount Vernon, Wash., USA), periodic acid-schiff staining (PAS, BBC Biochemical) and Masson's trichrome staining (BBC Biochemical).

[2] = tested on: TNFα secretion in LPS-stimulated human monocyte cell lines (THP-1); test: Suppression of TNFα secretion in LPS-stimulated THP-1 (ELISA); assay type: cell-based; settings: at both 100 nM and 300 nM
Method: To identify the efficacy of the inventive compounds on suppressing a TNFα secretion in immune responses, suppression of TNFα production, which was achieved by a treatment with compounds 374, 461, 500, 530 and 532 according to the present invention in LPS-stimulated human monocyte cell lines (THP-1), was quantified by means of an enzyme immuno-assay (ELISA).
Specifically, the THP-1 cell lines (ATCC) were cultured in an RPMI-1640 medium comprising 10% FBS. The cell lines were divided into a 24 well plate at a ratio of 1×10^5 cells per well, then treated with 100 ng/mL PMA (phorbol 12-myristate 13-acetate) for 24 hours, and then differentiated into macrophage. Then, the culture medium was replaced with a new one, then treated with a test drug for 24 hours, and then treated again with 10 ng/mL LPS (E. Coli, O55:B5) for four hours for stimulation. After that, supernatant was taken and used to measure the amount of TNFα secreted from the cells by means of a Human TNFα Instant ELISA kit (eBioscience, BMS223INST) according to a protocol provided by a manufacturer.

[3] = tested on: NZB/W F1 female mice; test: Proteinuria and UP/C in SLE model mouse; assay type: in vivo; settings: for incidence rate of severe proteinuria of 300 mg/dl or more: 42 weeks old
Method: as §1, §2
(§3) The fresh urine of mice was collected before and after administration every two weeks, while blood collection was performed before and after administration every four weeks. The serum was prepared by centrifugation of the collected blood and then kept at −70° C.
A urine creatinine concentration was obtained by diluting the urine 100-fold, then measuring the concentration thereof by means of a serum chemistry analyzer (Dri-CHEM 3000 colorimetric analyzer, Fujifilm), and then calibrating the measured value using a dilution factor.

[4] = tested on: NZB/W F1 female mice; test: Serum anti-dsDNA antibodies (ELISA) in SLE model mouse; assay type: in vivo
Method: as §1, §2, §3
To identify if the pharmaceutical composition according to the present invention may reduce an increased concentration of anti-dsDNA antibodies shown in the SLE model animal, a concentration of anti-dsDNA antibodies in mouse serum was measured by means of a mouse anti-dsDNA ELISA (enzyme-linked immunosorbent assay) kit (Shibayagi).

In the case of O=C(NO)c1ccc(CN(C(=O)N2CCOCC2)c2cccc(C(F)(F)F)c2)cc1 [Compound 374, N-(4-(hydroxycarbamoyl)benzyl)-N-(3-(trifluoromethyl)phenyl)morpholine-4-carboxamide], the “infiltration of inflammatory cells in kidney (marks 0-4)” value ([1]; 30 and 50 mg/kg dosed groups) is reported as “remarkably excellent effect of reducing the infiltration of inflammatory cells”, the “degree of infiltration of inflammatory cells in kidney (marks 0-4)” value ([1]; experimental groups) is reported as “decreased” and the “level of TNFα secretion” value [2] is reported as “remarkably decreased”. The “incidence rate of severe proteinuria of 300 mg/dl or more” value (“incidence rate … of 300 mg/dl or more” below) ([3]; 10 mg/kg dosed group) was 60%, the “incidence rate … of 300 mg/dl or more” value ([3]; 30 mg/kg dosed group) was 6.7% and the “incidence rate … of 300 mg/dl or more” value ([3]; 50 mg/kg dosed group) was 0%. The “UP/C (ratio of urine protein:creatine)” value ([3]; 36-week old, all the experimental groups) was “remarkably decreased”, the UP/C value ([3]; 42-week old, all experimental groups except the 10 mg/kg dosed group, vs negative control) was “decreased more” and the “incidence rate of severe proteinuria” value ([3]; experimental groups, 24 to 42 week after birth) was “remarkably improved”. The “decrease of serum concentration of anti-dsDNA antibodies” value ([4]; 50 mg/kg dosed group vs negative control) was “two-fold” and the “serum concentration of anti-dsDNA antibodies” value ([4]; after 28 week after birth, all the experimental groups, vs negative control) was “tended to decrease more”.

From US11571426B2, “Compositions for preventing or treating lupus” (CHONG KUN DANG PHARMACEUTICAL CORP., priority 2017, dated 2023)
